According to ChEMBL document CHEMBL5506066, “Potency-Enhanced Peptidomimetic VHL Ligands with Improved Oral Bioavailability” (J Med Chem, 2024):
pKd: −log10 of the molar value. Converted amounts (≈) assume the structure as drawn.

Key:
[1] = target: T1, von Hippel-Lindau disease tumor suppressor (Homo sapiens, UniProt P40337); experiment: biochemical
Description: Binding affinity to VHL (unknown origin)-NanoLuc fusion protein expressed in HEK293 cells assessed as apparent dissociation constant incubated for 30 mins in presence of digitonin by NanoBRET assay

[2] = Permeability of the compound at pH 7.4 in PBS incubated for 16 hrs by LC-MS/MS based PAMPA assay; type: ADME; conditions: read-out: permeability
[3] = target: T1, von Hippel-Lindau disease tumor suppressor
[4] = Half life in female C57Bl/6 mouse at 10 mg/kg, po measured upto 8 hrs by LC-MS/MS analysis; type: ADME, organism-based; conditions: in vivo
[5] = Solubility of the compound in FaSSIF; type: ADME
[6] = Oral bioavailability in female C57Bl/6 mouse at 10 mg/kg measured upto 8 hrs by LC-MS/MS analysis; type: ADME, organism-based; conditions: in vivo
[7] = Apparent permeability from apical to basolateral side in MDCKI cells at 10 uM measured upto 180 mins by LC-MS/MS analysis; type: ADME, cell-based, Canis lupus familiaris, MDCK1; conditions: dog, MDCK
[8] = Volume of distribution in female C57Bl/6 mouse at 1 mg/kg, iv measured upto 8 hrs by LC-MS/MS analysis; type: ADME, organism-based; conditions: in vivo
[9] = target: T1, von Hippel-Lindau disease tumor suppressor; experiment: Binding affinity to Navi-tagged VHL (unknown origin) assessed as dissociation constant by SPR assay
[10] = Plasma protein binding in human at 5 uM incubated for 4 hrs by HPLC analysis; type: ADME, cell-free; conditions: read-out: PPB (converted)
[11] = Plasma clearance in female C57Bl/6 mouse at 1 mg/kg, iv measured upto 8 hrs by LC-MS/MS analysis; type: ADME, organism-based
[12] = Plasma protein binding in CD-1 mouse at 5 uM incubated for 4 hrs by HPLC analysis; type: ADME, cell-free; conditions: read-out: PPB (converted)

T1 sequence (P40337 whole entry): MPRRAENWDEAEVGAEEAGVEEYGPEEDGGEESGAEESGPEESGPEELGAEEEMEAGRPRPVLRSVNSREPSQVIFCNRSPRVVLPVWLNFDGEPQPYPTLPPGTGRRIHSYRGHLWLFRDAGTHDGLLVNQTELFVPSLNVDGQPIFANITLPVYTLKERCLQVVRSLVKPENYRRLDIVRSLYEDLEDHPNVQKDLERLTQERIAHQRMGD

Compound | pKd [1] | pKd [3] | further results
CC(=O)N[C@H](C(=O)N1C[C@H](O)C[C@H]1C(=O)N[C@H](Cc1ccc(-c2ccccc2)cc1)C(N)=O)C(C)(C)C | – | – | Papp at 16 h [2]: 0.004 ×10⁻⁶ cm/s
CC(=O)N[C@H](C(=O)N1C[C@H](O)C[C@H]1C(=O)N[C@H](Cc1ccc(-c2ccccc2)cc1)C(N)=O)C(c1ccccc1)c1ccccc1 | 4.33 | < 4.24 | –
NC(=O)[C@@H](Cc1ccc(-c2ccccc2)cc1)NC(=O)[C@@H]1C[C@@H](O)CN1C(=O)Cc1ccon1 | < 4.29 | < 4.24 | –
NC(=O)[C@@H](Cc1ccc(-c2ccccc2)cc1)NC(=O)[C@@H]1C[C@@H](O)CN1C(=O)Cc1cccnc1 | < 4.29 | < 4.24 | –
Cc1noc(CC(=O)N2C[C@H](O)C[C@H]2C(=O)N[C@H](Cc2ccc(-c3ccccc3)cc2)C(N)=O)n1 | < 4.29 | < 4.24 | –
CC(C)(C)n1nnc(CC(=O)N2C[C@H](O)C[C@H]2C(=O)N[C@H](Cc2ccc(-c3ccccc3)cc2)C(N)=O)n1 | 4.31 | < 4.24 | –
NC(=O)[C@@H](Cc1ccc(-c2ccccc2)cc1)NC(=O)[C@@H]1C[C@@H](O)CN1C(=O)Cc1cncs1 | < 4.29 | < 4.24 | –
Cc1cn([C@H](C(=O)N2C[C@H](O)C[C@H]2C(=O)N[C@H](Cc2ccc(-c3ccccc3)cc2)C(N)=O)C(C)C)cn1 | 4.31 | < 4.24 | –
COc1ccc(-c2ccc(C[C@@H](NC(=O)[C@@H]3C[C@@H](O)CN3C(=O)[C@@H](NC(C)=O)C(C)(C)C)C(N)=O)cc2)cc1 | 4.51 | < 4.24 | –
CC(=O)N[C@@H](Cc1cscn1)C(=O)N1C[C@H](O)C[C@H]1C(=O)N[C@H](Cc1ccc(-c2ccccc2)cc1)C(N)=O | 4.85 | < 4.24 | –
CC(=O)NC1(C(=O)N2C[C@H](O)C[C@H]2C(=O)N[C@H](Cc2ccc(-c3ccccc3)cc2)C(N)=O)CCC1 | < 4.29 | < 4.24 | –

Second part, led by results:

pKd [1] | pKd [3] | Compound | further results
5.48 | < 4.29 | CC(=O)N[C@H](C(=O)N1C[C@H](O)C[C@H]1C(=O)N[C@H](Cc1ccc(-c2scnc2C)cc1)C(N)=O)C(C)(C)C | Papp at 16 h [2]: 0.19 ×10⁻⁶ cm/s
> 8.60 | > 8.60 | Cc1ncsc1-c1ccc2c(c1)CCCC[C@@H]2NC(=O)[C@@H]1C[C@@H](O)CN1C(=O)[C@@H](n1cc(C2CC2)nn1)C(C)(C)C | half-life [4]: 2.3 h; solubility [5]: 190 µM (≈ 110 µg/mL); bioavailability [6]: 46.5%; Papp A→B at 3 h, 10 µM [7]: 8.9 ×10⁻⁶ cm/s; Vd [8]: 0.7 L/kg; pKd [9]: 9.27; fraction unbound at 4 h, 5 µM [10]: 0.003; clearance [11]: 13.9 mL/min/kg; fraction unbound at 4 h, 5 µM [12]: 0.003
6.92 | 6.74 | CC(=O)N[C@H](C(=O)N1C[C@H](O)C[C@H]1C(=O)N[C@@H](C)c1ccc(-c2scnc2C)cc1)C(C)(C)C | half-life [4]: 3.8 h; solubility [5]: > 200 µM; bioavailability [6]: 2.7%; Papp A→B at 3 h, 10 µM [7]: 0.7 ×10⁻⁶ cm/s; Vd [8]: 0.9 L/kg; fraction unbound at 4 h, 5 µM [10]: 0.516; clearance [11]: 57.7 mL/min/kg; fraction unbound at 4 h, 5 µM [12]: 0.399
8.19 | 8.20 | Cc1ncsc1-c1ccc(CNC(=O)[C@@H]2C[C@@H](O)CN2C(=O)[C@@H](n2cc(C3CC3)nn2)C(C)(C)C)cc1 | –
7.16 | 7.23 | CCC(C)(C)[C@@H](C(=O)N1C[C@H](O)C[C@H]1C(=O)N[C@H](Cc1ccc(-c2ccccc2)cc1)C(N)=O)n1cc(C2CC2)nn1 | –
5.05 | < 4.24 | CC(=O)N[C@H](C(=O)N1C[C@H](O)C[C@H]1C(=O)N[C@H](Cc1ccc(C#N)cc1)C(N)=O)C(C)(C)C | –
5.57 | 4.34 | CC(=O)N[C@H](C(=O)N1C[C@H](O)C[C@H]1C(=O)N[C@H](Cc1ccc(-c2cccnc2)cc1)C(N)=O)C(C)(C)C | –
